Data reported in patent US20090062243A1, “Lupane-Type Triterpenoids Modified at 30-Position and Analogues Thereof” (ADVANCED LIFE SCIENCES, INC., priority 2007, published 2009).

Tests used:
Format in all cases: cell-based
LN-229 (glioblastoma) = test: MTS cell viability assay, LN-229
Method: (§1) Cells were plated, the evening before treatment, for each treatment on 96-well plates (1×10^4 cells/well) in 100 μL volume per well. Analog solutions were prepared by diluting each test compound in DSMO (10 mM) with the appropriate cell growth media for each individual cell line, or in “Universal Media” if several cell lines were to be assayed in parallel, immediately prior to cell treatment. Universal Media consisted of 5 mL sodium pyruvate (100× liquid stock, MediaTech), 5 mL glucose (100×, 45% liquid stock, MediaTech), 5 mL Penicillin/Streptomycin (100× liquid stock, MediaTech), 10 mL sodium bicarbonate (50× liquid stock, MediaTech), 25 mL Fetal Calf Serum, 1.25 mL insulin (4 mg/mL, Gibco) and […] RPMI media with 2 mM L-glutamine for a total volume of 500 mL.
(§2) Cells were treated by aspirating plating media from each well and adding 80 μL of betulinic acid (control) or each analog solution in serial dilutions to the adherent cells. All treatments were performed in triplicate. Growth media (80 μL) was added to 3 blank wells (no cells) to measure background from the growth media. Growth media alone (no DMSO or test compound) was added to 3 wells containing cells to measure the baseline MTS activity. Vehicle (DMSO) control in serial dilutions, added to cells, was also included to monitor basal toxicity from DMSO. Cells were incubated at 37° C. for 72 h, or 120 h for the OVCAR cell lines. MTS reagent (per 96-well plate) were prepared by combining 2 mL of MTS working solution (Cell Titer AQueous Non-Radioactive Cell Proliferation Assay, Promega, cat#G1112), 100 μL of 0.92 mg/mL phenazine methosulfate/Dulbecco's PBS and 2.1 mL growth media. MTS reagent (40 μL) were added to each well and incubated at 37° C. for 1.5 to 4 h. Plates were gently shaken by hand until solution in each well appeared homogenous. Absorbances at 490 nm were measured on a Wallac Victor II plate reader at multiple time points following the addition of MTS reagent for each plate. Triplicate absorbance (490 nm) measurements were averaged following background (no cell) subtraction for each drug concentration. Percent Cell Viability was calculated for each drug concentration using the following equation:
(§3) {[Absorbance(analog treated)]/[Absorbance(DMSO treated)]}×100%
(§4) Cytotoxicity dose response for the triterpenoid derivatives synthesized in SK-MEL-2 (melanoma), A-375 (melanoma), Daoy (glioblastoma), LN-229 (glioblastoma), OVCAR-3 (ovarian carcinoma), HT-29 (colon carcinoma), MCF-7 (breast carcinoma) cell lines using the standard MTS assay is summarized in Table 1. In Table 1, compounds 22a-d and compounds 23a-c refer to structures 22 and 23 in Scheme 5, respectively. Compounds 24aa-an and 24ba-bq refer to structure 24 in Scheme 6. Compounds 26a-e refer to structure 26 in Scheme 6. Compounds 36a-c refer to structure 36 in Scheme 10.

Daoy = test: MTS cell viability assay, Daoy; conditions: cells incubated 72 h
Method: as §1, §2, §3, §4

MCF-7 (breast carcinoma) = test: MTS cell viability assay, MCF-7
Method: as §1, §2, §3, §4

SK-MEL-2 (melanoma) = test: MTS cell viability assay, SK-MEL-2
Method: as §1, §2, §3, §4

HT-29 (colon carcinoma) = test: MTS cell viability assay, HT-29
Method: as §1, §2, §3, §4

A-375 (melanoma) = test: MTS cell viability assay, A-375
Method: as §1, §2, §3, §4

[1] = system: OVCAR-3 (ovarian carcinoma); test: MTS cell viability assay, OVCAR-3
Method: as §1, §2, §3, §4

[2] = Homo sapiens, LN-229, cells incubated 72 h
[3] = Homo sapiens, MCF7, cells incubated 72 h
[4] = Homo sapiens, SK-MEL-2, cells incubated 72 h
[5] = Homo sapiens, HT-29, cells incubated 72 h
[6] = Homo sapiens, A-375, cells incubated 72 h
[7] = Homo sapiens, OVCAR-3, 120 h for the OVCAR cell lines

Compound	IC50 (LN-229 (glioblastoma); [2]) [µM]	IC50 (Daoy; Homo sapiens, Daoy) [µM]	IC50 (MCF-7 (breast carcinoma); [3]) [µM]	IC50 (SK-MEL-2 (melanoma); [4]) [µM]	IC50 (HT-29 (colon carcinoma); [5]) [µM]	IC50 (A-375 (melanoma); [6]) [µM]	IC50 (LN-229 (glioblastoma); cells incubated 72 h) [µM]	IC50 (Daoy) [µM]	IC50 (MCF-7 (breast carcinoma); cells incubated 72 h) [µM]	IC50 (SK-MEL-2 (melanoma); cells incubated 72 h) [µM]	IC50 ([1]; 120 h for the OVCAR cell lines) [µM]	IC50 (HT-29 (colon carcinoma); cells incubated 72 h) [µM]	IC50 (A-375 (melanoma); cells incubated 72 h) [µM]	IC50 [1, 7] [µM]
C=C(CNCCO)[C@@H]1CC[C@]2(COC3CCCCO3)CC[C@]3(C)[C@H](CC[C@@H]4[C@@]5(C)CCC(N)C(C)(C)[C@@H]5CC[C@]43C)[C@@H]12 (stereo partly shown) [Compound 24ba]	15	5	3	5	2	3								
C=C(CO)[C@@H]1CC[C@]2(CO)CC[C@]3(C)[C@H](CC[C@@H]4[C@@]5(C)CCC(NCCc6ccc(O)cc6)C(C)(C)[C@@H]5CC[C@]43C)[C@@H]12 (stereo partly shown) [Compound 24ag]							17	16	28	12	5	26	17	
C=C(CO)[C@@H]1CC[C@]2(COC3CCCCO3)CC[C@]3(C)[C@H](CC[C@@H]4[C@@]5(C)CCC(N)C(C)(C)[C@@H]5CC[C@]43C)[C@@H]12 (stereo partly shown) [Compound 24aa]	4	4	6	5	12	0.89								15
C=C(C=O)[C@@H]1CC[C@]2(CO)CC[C@]3(C)[C@H](CC[C@@H]4[C@@]5(C)CCC(=O)C(C)(C)[C@@H]5CC[C@]43C)[C@@H]12 [Compound 9b]	20	16	56	16	52	18								6
C=C(CNCCO)[C@@H]1CC[C@]2(COC3CCCCO3)CC[C@]3(C)[C@H](CC[C@@H]4[C@@]5(C)CCC(NCCc6ccc(O)cc6)C(C)(C)[C@@H]5CC[C@]43C)[C@@H]12 (stereo partly shown) [Compound 24be]							18	0.5	5	2		< 2	< 2	
C=C(CO)[C@@H]1CC[C@]2(CO)CC[C@]3(C)[C@H](CC[C@@H]4[C@@]5(C)CCC(NCCc6ccc(O)c(O)c6)C(C)(C)[C@@H]5CC[C@]43C)[C@@H]12 (stereo partly shown) [Compound 24aj]	17	34	31	24	37	6								18
C=C(CNCCO)[C@@H]1CC[C@]2(CO)CC[C@]3(C)[C@H](CC[C@@H]4[C@@]5(C)CCC(NCCOC)C(C)(C)[C@@H]5CC[C@]43C)[C@@H]12 (stereo partly shown) [Compound 24bc]							28	5	11	8		2	4	
C=C(C=O)[C@@H]1CC[C@]2(COC(C)=O)CC[C@]3(C)[C@H](CC[C@@H]4[C@@]5(C)CCC(=O)C(C)(C)[C@@H]5CC[C@]43C)[C@@H]12 [Compound 14a]	9	7	56	12	46	16								4
C=C(CO)[C@@H]1CC[C@]2(COC3CCCCO3)CC[C@]3(C)[C@H](CC[C@@H]4[C@@]5(C)CCC(NCCOC)C(C)(C)[C@@H]5CC[C@]43C)[C@@H]12 (stereo partly shown) [Compound 24ae]	17	28	16	34	19	6								17
CC(CNCCO)[C@@H]1CC[C@]2(COC3CCCCO3)CC[C@]3(C)[C@H](CC[C@@H]4[C@@]5(C)CCC(O)C(C)(C)[C@@H]5CC[C@]43C)[C@@H]12 (stereo partly shown) [Compound 36a]	28	4	7	4	5	5								
C=C(CNCCO)[C@@H]1CC[C@]2(CO)CC[C@]3(C)[C@H](CC[C@@H]4[C@@]5(C)CCC(N)C(C)(C)[C@@H]5CC[C@]43C)[C@@H]12 (stereo partly shown) [Compound 24bb]	12	5	2	6	< 2	5								
C=C(CNCCO)[C@@H]1CC[C@]2(COC3CCCCO3)CC[C@]3(C)[C@H](CC[C@@H]4[C@@]5(C)CCC(NCCO)C(C)(C)[C@@H]5CC[C@]43C)[C@@H]12 (stereo partly shown) [Compound 24bg]							18	5	4	5		3	< 2	
C=C(CO)[C@@H]1CC[C@]2(COC3CCCCO3)CC[C@]3(C)[C@H](CC[C@@H]4[C@@]5(C)CCC(=O)C(C)(C)[C@@H]5CC[C@]43C)[C@@H]12 (stereo partly shown) [Compound 5]	46	35	37	34	75									48
C=C(CO)[C@@H]1CC[C@]2(COC3CCCCO3)CC[C@]3(C)[C@H](CC[C@@H]4[C@@]5(C)C=CC(=O)C(C)(C)[C@@H]5CC[C@]43C)[C@@H]12 (stereo partly shown) [Compound 28]		16	5	19	19	18								30
C=C(CO)[C@@H]1CC[C@]2(C(=O)O)CC[C@]3(C)[C@H](CC[C@@H]4[C@@]5(C)CC[C@H](O)C(C)(C)[C@@H]5CC[C@]43C)[C@@H]12 [Compound 19b]		> 45		> 45										
C=C(CNCCO)[C@@H]1CC[C@]2(CO)CC[C@]3(C)[C@H](CC[C@@H]4[C@@]5(C)CCC(O)C(C)(C)[C@@H]5CC[C@]43C)[C@@H]12 (stereo partly shown) [Compound 23b]		35		15										
C=C(CNCCO)[C@@H]1CC[C@]2(CO)CC[C@]3(C)[C@H](CC[C@@H]4[C@@]5(C)CCC(NCCc6ccc(O)cc6)C(C)(C)[C@@H]5CC[C@]43C)[C@@H]12 (stereo partly shown) [Compound 24bf]							14	1	4	5		< 2	2	
C=C(CNCCc1ccc(O)cc1)[C@@H]1CC[C@]2(COC3CCCCO3)CC[C@]3(C)[C@H](CC[C@@H]4[C@@]5(C)CCC(=O)C(C)(C)[C@@H]5CC[C@]43C)[C@@H]12 (stereo partly shown) [Compound 22c]	8	13	6	7	4	6								
C=C(CO)[C@@H]1CC[C@]2(C=O)CC[C@]3(C)[C@H](CC[C@@H]4[C@@]5(C)CCC(=O)C(C)(C)[C@@H]5CC[C@]43C)[C@@H]12 [Compound 18b]		> 75		> 75										
C=C(C=O)[C@@H]1CC[C@]2(COC3CCCCO3)CC[C@]3(C)[C@H](CC[C@@H]4[C@@]5(C)CCC(=O)C(C)(C)[C@@H]5CC[C@]43C)[C@@H]12 (stereo partly shown) [Compound 9a]		7	32	7	9	< 3								9
C=C(CO)[C@@H]1CC[C@]2(COC(C)=O)CC[C@]3(C)[C@H](CC[C@@H]4[C@@]5(C)CCC(=O)C(C)(C)[C@@H]5CC[C@]43C)[C@@H]12 [Compound 12]		> 45		> 45										
C=C(CNCCO)[C@@H]1CC[C@]2(CO)CC[C@]3(C)[C@H](CC[C@@H]4[C@@]5(C)CCC(NCCO)C(C)(C)[C@@H]5CC[C@]43C)[C@@H]12 (stereo partly shown) [Compound 24bh]							16	13	6	7		2	6	
C=C(C(=O)O)[C@@H]1CC[C@]2(CO)CC[C@]3(C)[C@H](CC[C@@H]4[C@@]5(C)CC[C@H](O)C(C)(C)[C@@H]5CC[C@]43C)[C@@H]12 [Compound 15]		> 75		> 75										
C=C(CNCCO)[C@@H]1CC[C@]2(CO)CC[C@]3(C)[C@H](CC[C@@H]4[C@@]5(C)CCC(NC6CCC(O)CC6)C(C)(C)[C@@H]5CC[C@]43C)[C@@H]12 (stereo partly shown) [Compound 24bj]							16	5	4	5		2	7	
